Laboratory results: ChEMBL document CHEMBL4823312, “Virtual screening and biological evaluation of PPARγ antagonists as potential anti-prostate cancer agents” (Bioorg Med Chem, 2021)

target: T1, Peroxisome proliferator-activated receptor gamma (Homo sapiens, UniProt P37231); assay: Antagonist activity at PPARgamma (unknown origin) expressed in human LNCaP cells assessed as suppression of pioglitazone-induced PPAR response element driven firefly luciferase activity measured after 24 hrs by dual luciferase reporter assay; type: cell-based
T1 sequence (P37231 whole entry): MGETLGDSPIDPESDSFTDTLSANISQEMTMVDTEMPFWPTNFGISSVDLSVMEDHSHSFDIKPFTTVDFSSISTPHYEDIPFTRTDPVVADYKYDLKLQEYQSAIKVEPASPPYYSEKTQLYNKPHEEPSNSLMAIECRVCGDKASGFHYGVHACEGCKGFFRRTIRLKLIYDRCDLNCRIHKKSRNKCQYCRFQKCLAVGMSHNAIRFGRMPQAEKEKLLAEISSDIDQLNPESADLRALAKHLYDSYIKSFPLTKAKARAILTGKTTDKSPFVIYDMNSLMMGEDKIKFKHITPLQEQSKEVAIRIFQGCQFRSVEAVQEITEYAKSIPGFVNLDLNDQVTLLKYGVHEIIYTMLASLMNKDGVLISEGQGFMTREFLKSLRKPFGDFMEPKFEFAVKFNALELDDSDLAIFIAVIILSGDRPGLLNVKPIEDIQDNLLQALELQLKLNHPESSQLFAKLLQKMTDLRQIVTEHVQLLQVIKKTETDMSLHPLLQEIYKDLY

First: O=C(O)c1ccccc1-c1ccccc1C(=O)Nc1ccc2c(c1)-c1ccccc1C2
Second: O=C(Nc1ccccc1C(=O)N/N=C/c1c(O)ccc2ccccc12)c1ccccc1Cl
The IC50 of the first is 2.1-fold higher: 3500 nM for the first, 1700 nM for the second.

Compared with `COc1cc(OC)c2c(=O)cc(-c3cccnc3)oc2c1`, `COc1c(OC)c(O)c2c(=O)cc(-c3ccc(O)cc3)oc2c1OC` [XANTHOMICROL] is 4.9-fold higher in IC50: 1100 nM for the first, 5400 nM for the second. The first is the more potent here.

Compared with `O=C1C=C(Nc2ccccc2C(=O)CC(=O)C(=O)Nc2ccc(Cl)c(Cl)c2)c2ccccc2C1=O`, `CCN(CC)c1ccc(CN(CC(=O)c2ccc(Cl)c(Cl)c2)Cc2ccccc2)cc1` is 1.6-fold higher in IC50: 2800 nM for the first, 4500 nM for the second.

First: COc1ccc(O)c(/C=N/c2ccccc2NS(=O)(=O)c2ccc(C)cc2)c1
Second: COc1ccc(NC(=O)CC[C@H](NS(=O)(=O)c2ccc(C)cc2)C(=O)O)cc1
The IC50 of the first is 120-fold lower: 2300 nM for the first, 275000 nM for the second. The first is the more potent here.

First: O=C(CNC(=O)Nc1ccc(NC(=O)NCC(=O)Nc2ccc(C3=NCCN3)cc2)cc1)Nc1ccc(C2=NCCN2)cc1
Second: CC(=O)c1cc(C(C)=O)c(CC(=O)C(=O)Nc2cccc(C)c2C)cc1CC(=O)C(=O)Nc1cccc(C)c1C
The IC50 of the first is 1.6-fold lower: 1600 nM for the first, 2600 nM for the second. The first is the more potent here.

First: O=C(OCc1cccc2ccc3cccc(COC(=O)c4ccccc4)c3c12)c1ccccc1
Second: O=C(CCCC(=O)N/N=C/c1cccc2ccccc12)N/N=C/c1ccc2ccccc2c1
The IC50 of the first is 2.6-fold higher: 5400 nM for the first, 2100 nM for the second.

Going from `O=S(=O)(NCCSSCCNS(=O)(=O)c1cccc2cccnc12)c1cccc2cccnc12` to `CC(/C=N/Nc1ccc(S(=O)(=O)/N=C/C(C)=C/c2ccccc2)cc1)=C\c1ccccc1`, the IC50 rises from 1500 nM to 2300 nM (1.5-fold). The first is the more potent here.

In the case of `O=C(CCCOc1ccc(Cl)cc1Cl)N[C@@H](Cc1c[nH]c2ccccc12)C(=O)O`, the IC50 is reported as 2400 nM.
